What was measured:
ABUTH [1] = experiment: Pre-emergence herbicidal action against ABUTH; assay type: in vivo, Abutilon theophrasti
Method in brief: (§1)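 Greenhouse pots of sandy loam held seeds covered with soil, onto which the compound was applied before emergence. An aqueous suspension or emulsion of WP or EC was used at 600 to 800 l/ha with 0.2% wetting agent. Percent damage was judged visually at 3 weeks.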

ALOMY [2] = experiment: Pre-emergence herbicidal action against ALOMY; assay type: in vivo, Alopecurus myosuroides; settings: 80 g/ha, pre-emergence, scored visually after 3 weeks vs untreated controls (100% = plants have died, 0% = like control plants)
Method in brief: as §1

AMARE [3] = experiment: Pre-emergence herbicidal action against AMARE; assay type: in vivo, Amaranthus retroflexus
Method in brief: as §1

AVEFA = experiment: Pre-emergence herbicidal action against AVEFA; assay type: in vivo, Avena fatua; settings: 80 g/ha, pre-emergence
Method in brief: as §1

ECHCG [4] = experiment: Pre-emergence herbicidal action against ECHCG; assay type: in vivo, Echinochloa crus-galli; settings: 80 g/ha
Method in brief: as §1

LOLRI = experiment: Pre-emergence herbicidal action against LOLRI; assay type: in vivo, Lolium rigidum; settings: 80 g/ha
Method in brief: as §1

MATIN [5] = experiment: Pre-emergence herbicidal action against MATIN; assay type: in vivo, Matricaria inodora
Method in brief: as §1

PHBPU [6] = experiment: Pre-emergence herbicidal action against PHBPU; assay type: in vivo, Pharbitis purpurea
Method in brief: as §1

POLCO = experiment: Pre-emergence herbicidal action against POLCO; assay type: in vivo, Polygonum convolvulus; settings: dosage 80 g/ha
Method in brief: as §1

SETVI [7] = experiment: Pre-emergence herbicidal action against SETVI; assay type: in vivo, Setaria viridis; settings: Setaria viridis, 504 h
Method in brief: as §1

VERPE [8] = experiment: Pre-emergence herbicidal action against VERPE; assay type: in vivo, Veronica persica
Method in brief: as §1

VIOTR = experiment: Pre-emergence herbicidal action against VIOTR; assay type: in vivo, Viola tricolor
Method in brief: as §1

DIGSA [9] = experiment: Pre-emergence herbicidal action against DIGSA; assay type: in vivo, Digitaria sanguinalis
Method in brief: as §1

ABUTH [10] = experiment: Post-emergence herbicidal action against ABUTH; assay type: in vivo, Abutilon theophrasti; settings: Abutilon theophrasti, 504 h, visual assessment about 3 weeks after treatment vs untreated controls
Method in brief: (§2)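 A WP or EC formulation diluted in water with 0.2% wetting agent was sprayed at 600 to 800 l/ha onto one-leaf-stage plants grown in sandy loam. About 3 weeks later, action was rated visually in percent, 100% being dead plants.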

ALOMY [11] = experiment: Post-emergence herbicidal action against ALOMY; assay type: in vivo, Alopecurus myosuroides; settings: dosage 20 g/ha, visual assessment about 3 weeks after treatment vs untreated controls
Method in brief: as §2

AMARE [12] = experiment: Post-emergence herbicidal action against AMARE; assay type: in vivo, Amaranthus retroflexus; settings: 20 g/ha, visual assessment about 3 weeks after treatment, 100% = plants have died, 0% = like control plants
Method in brief: as §2

ECHCG [13] = experiment: Post-emergence herbicidal action against ECHCG; assay type: in vivo, Echinochloa crus-galli
Method in brief: as §2

MATIN [14] = experiment: Post-emergence herbicidal action against MATIN; assay type: in vivo, Matricaria inodora; settings: dosage 20 g/ha
Method in brief: as §2

PHBPU [15] = experiment: Post-emergence herbicidal action against PHBPU; assay type: in vivo, Pharbitis purpurea
Method in brief: as §2

SETVI [16] = experiment: Post-emergence herbicidal action against SETVI; assay type: in vivo, Setaria viridis
Method in brief: as §2

VERPE [17] = experiment: Post-emergence herbicidal action against VERPE; assay type: in vivo, Veronica persica; settings: 20 g/ha
Method in brief: as §2

DIGSA [18] = experiment: Post-emergence herbicidal action against DIGSA; assay type: in vivo, Digitaria sanguinalis
Method in brief: as §2

[19] = 80 g/ha, scored visually after 3 weeks vs untreated controls (100% = plants have died, 0% = like control plants)

CC(C)NC(=O)c1c(C(F)F)ccc(C(=O)Nc2nnnn2C)c1Cl [Example 1-155]
pest or weed control at 80 g/ha (ABUTH [1]; Abutilon theophrasti, 504 h, 80 g/ha, scored visually after 3 weeks vs untreated controls (100% = plants have died, 0% = like control plants)): 100% | pest or weed control at 20 g/ha (ABUTH [1]; Abutilon theophrasti, 504 h, dosage 20 g/ha, scored visually after 3 weeks vs untreated controls, 100% = plants have died, 0% = like control plants, read-out: Pre-emergence action against ABUTH (herbicidal activity in percent)): 100% | pest or weed control at 80 g/ha (ALOMY [2]; Alopecurus myosuroides, 504 h): 90% | pest or weed control at 20 g/ha (AMARE [3]; Amaranthus retroflexus, 504 h, 20 g/ha, scored visually after 3 weeks vs untreated controls, 100% = plants have died, 0% = like control plants): 100% | pest or weed control at 80 g/ha (AMARE [3]; Amaranthus retroflexus, 504 h, 80 g/ha, scored visually after 3 weeks vs untreated controls, 100% = plants have died, 0% = like control plants): 100% | pest or weed control at 80 g/ha (AVEFA; Avena fatua, 504 h): 90% | pest or weed control at 80 g/ha (ECHCG [4]; Echinochloa crus-galli, 504 h): 100% | pest or weed control at 80 g/ha (LOLRI; Lolium rigidum, 504 h): 90% | pest or weed control at 20 g/ha (MATIN [5]; Tripleurospermum inodorum, 504 h, dosage 20 g/ha): 100% | pest or weed control at 80 g/ha (MATIN [5]; Tripleurospermum inodorum, 504 h, dosage 80 g/ha): 100% | pest or weed control at 80 g/ha (PHBPU [6]; Ipomoea purpurea, 504 h, dosage 80 g/ha): 100% | pest or weed control at 80 g/ha (POLCO; Fallopia convolvulus, 504 h): 90% | pest or weed control at 20 g/ha (SETVI [7]; dosage 20 g/ha): 80% | pest or weed control at 80 g/ha (SETVI [7]; dosage 80 g/ha): 100% | pest or weed control at 80 g/ha (VERPE [8]; Veronica persica, 504 h, dosage 80 g/ha): 100% | pest or weed control at 80 g/ha (VIOTR; Viola tricolor, 504 h, dosage 80 g/ha): 100% | pest or weed control at 20 g/ha (DIGSA [9]; Digitaria sanguinalis, 504 h, dosage 20 g/ha): 100% | pest or weed control at 80 g/ha (DIGSA [9]; Digitaria sanguinalis, 504 h, dosage 80 g/ha): 100% | pest or weed control at 5 g/ha (ABUTH [10]; dosage 5 g/ha): 80% | pest or weed control at 20 g/ha (ABUTH [10]; dosage 20 g/ha): 90% | pest or weed control at 20 g/ha (ALOMY [11]; Alopecurus myosuroides, 504 h): 90% | pest or weed control at 20 g/ha (AMARE [12]; Amaranthus retroflexus, 504 h): 90% | pest or weed control at 5 g/ha (ECHCG [13]; Echinochloa crus-galli, 504 h, dosage 5 g/ha): 90% | pest or weed control at 20 g/ha (ECHCG [13]; Echinochloa crus-galli, 504 h, dosage 20 g/ha): 90% | pest or weed control at 20 g/ha (MATIN [14]; Tripleurospermum inodorum, 504 h): 80% | pest or weed control at 5 g/ha (PHBPU [15]; Ipomoea purpurea, 504 h, dosage 5 g/ha): 90% | pest or weed control at 20 g/ha (PHBPU [15]; Ipomoea purpurea, 504 h, dosage 20 g/ha): 90% | pest or weed control at 20 g/ha (SETVI [16]; Setaria viridis, 504 h, dosage 20 g/ha): 80% | pest or weed control at 20 g/ha (VERPE [17]; Veronica persica, 504 h): 80% | pest or weed control at 5 g/ha (DIGSA [18]; Digitaria sanguinalis, 504 h, 5 g/ha): 90% | pest or weed control at 20 g/ha (DIGSA [18]; Digitaria sanguinalis, 504 h, 20 g/ha): 90%

Cc1c(C(=O)Nc2nnnn2C)ccc(C(F)F)c1C(=O)NC(C)C1CC1 (stereo not shown) [Example 1-339]
Pre-emergence action against ABUTH (herbicidal activity) (ABUTH [1]; [19]): 100% | Pre-emergence action against ABUTH (herbicidal activity in percent) (ABUTH [1]; dosage 20 g/ha, scored visually after 3 weeks vs untreated controls, 100% = plants have died, 0% = like control plants): 90% | Pre-emergence action against ALOMY (herbicidal activity) (ALOMY [2]): 90% | Pre-emergence action against AMARE in % (AMARE [3]; 20 g/ha, scored visually after 3 weeks vs untreated controls, 100% = plants have died, 0% = like control plants): 100% | Pre-emergence action against AMARE in % (AMARE [3]; [19]): 100% | Pre-emergence action against AVEFA in % (AVEFA): 100% | Pre-emergence action against ECHCG in % (ECHCG [4]): 100% | Pre-emergence action against LOLRI in % (LOLRI): 100% | Pre-emergence action against MATIN in % (MATIN [5]; dosage 80 g/ha): 100% | Pre-emergence action against PHBPU in % (PHBPU [6]; dosage 20 g/ha): 100% | Pre-emergence action against PHBPU in % (PHBPU [6]; dosage 80 g/ha): 100% | Pre-emergence action against POLCO in % (POLCO): 80% | Pre-emergence action against VERPE in % (VERPE [8]; dosage 20 g/ha): 100% | Pre-emergence action against VERPE in % (VERPE [8]; dosage 80 g/ha): 100% | Pre-emergence action against VIOTR in % (VIOTR; dosage 20 g/ha): 100% | Pre-emergence action against VIOTR in % (VIOTR; dosage 80 g/ha): 100% | Pre-emergence action against DIGSA in % (DIGSA [9]; dosage 20 g/ha): 100% | Pre-emergence action against DIGSA in % (DIGSA [9]; dosage 80 g/ha): 100% | Post-emergence action against ALOMY in % (ALOMY [11]): 80% | Post-emergence action at 20 g/ha against AMARE in % (AMARE [12]): 90% | Post-emergence action against ECHCG in % (ECHCG [13]; dosage 5 g/ha): 90% | Post-emergence action against ECHCG in % (ECHCG [13]; dosage 20 g/ha): 90% | Post-emergence action against MATIN in % (MATIN [14]): 80% | Post-emergence action against PHBPU in % (PHBPU [15]; dosage 5 g/ha): 80% | Post-emergence action against PHBPU in % (PHBPU [15]; dosage 20 g/ha): 90% | Post-emergence action against SETVI in % (SETVI [16]; dosage 5 g/ha): 80% | Post-emergence action against SETVI in % (SETVI [16]; dosage 20 g/ha): 90% | Post-emergence action against VERPE in % (VERPE [17]): 90% | Post-emergence action against DIGSA in % (DIGSA [18]; 5 g/ha): 90% | Post-emergence action against DIGSA (DIGSA [18]; 20 g/ha): 90%
